Test results reported in patent US10226451B2, “Substituted bicyclic compounds as bromodomain inhibitors” (ZENITH EPIGENETICS LTD, priority 2013, dated 2019).

What was measured:
[1] = target: T1, Brd4 bromodomain 1 (BRD4(1)) (Homo sapiens, UniProt O60885); assay: Inhibition of tetra-acetylated histone H4 binding to Brd4 bromodomain 1 (HTRF/FRET); conditions: tetra-acetylated histone H4 peptide, His-tagged bromodomain 200 nM, 2 h
T1 construct: made in house; host or cells: E. coli BL21(DE3)
Protocol: Proteins were cloned and overexpressed with a N-terminal 6×His tag, then purified by nickel affinity followed by size exclusion chromatography. Briefly, E. coli BL21(DE3) cells were transformed with a recombinant expression vector encoding N-terminally Nickel affinity tagged bromodomains from Brd2, Brd3, Brd4. Cell cultures were incubated at 37° C. with shaking to the appropriate density and induced overnight with IPTG. The supernatant of lysed cells was loaded onto Ni-IDA column for purification. Eluted protein was pooled, concentrated and further purified by size exclusion chromatography. Fractions representing monomeric protein were pooled, concentrated, aliquoted, and frozen at −80° C. for use in subsequent experiments.
Binding of tetra-acetylated histone H4 and BET bromodomains was confirmed by a Homogenous Time Resolved Fluorescence Resonance Energy Transfer (HTRF®) method. N-terminally His-tagged bromodomains (200 nM) and biotinylated tetra-acetylated histone H4 peptide (25-50 nM, Millipore) were incubated in the presence of Europium Cryptate-labeled streptavidin (Cisbio Cat. #610SAKLB) and XL665-labeled monoclonal anti-His antibody (Cisbio Cat. #61HISXLB) in a white 96 well microtiter plate (Greiner). For inhibition assays, serially diluted test compound was added to these reactions in a 0.2% final concentration of DMSO. Duplicate wells were used for each concentration tested. Final buffer concentrations were 30 mM HEPES pH 7.4, 30 mM NaCl, 0.3 mM CHAPS, 20 mM phosphate pH 7.0, 320 mM KF, 0.08% BSA. After a 2 h incubation at room temperature, fluorescence was measured at 665 and 620 nm with a SynergyH4 plate reader (Biotek). The binding inhibitory activity was shown by a decrease in 665 nm relative to 620 nm fluorescence. IC50 values were determined from a dose response curve.

Human AML MV-4-11 cells = assay: Inhibition of cell proliferation in MV4-11 cells (CellTiter Aqueous One); type: cell-based; conditions: 72 h
Protocol: In this example, cell titer in MV4-11 cells were quantitated to measure the inhibition of proliferation when treated with a compound of the present disclosure.
MV4-11 cells (CRL-9591) were plated at a density of 5×10^4 cells per well in 96 well flat bottom plates and treated with increasing concentrations of test compound or DMSO (0.1%) in IMDM media containing 10% FBS and penicillin/streptomycin. Triplicate wells were used for each concentration and a well containing only media was used as a control. Plates were incubated at 37° C., 5% CO2 for 72 h before adding 20 μL of the CellTiter Aqueous One Solution (Promega) to each well and incubated at 37° C., 5% CO2 for an additional 3-4 h. The absorbance was read at 490 nm in a spectrophotometer and the percentage of cell titer relative to DMSO-treated cells was calculated after correcting for background by subtracting the blank well's signal. IC50 values were calculated using the Graph Pad Prism software.

[2] = test system: hIL-17 mRNA in human peripheral blood mononuclear cells; assay: Inhibition of hIL-17 mRNA transcription in OKT3-stimulated PBMC; type: cell-based; conditions: OKT3 antibody, 6 h, read-out: IL-17 activity
Protocol: In this example, hIL-17 mRNA in human peripheral blood mononuclear cells were quantitated to measure the transcriptional inhibition of hIL-17 when treated with a compound of the present disclosure.
Human peripheral blood mononuclear cells were plated (2.0×10^5 cells per well) in a 96-well plate in 45 μL OpTimizer T Cell expansion media (Life Technologies) containing 20 ng/ml IL-2 and penicillin/streptomycin. The cells were treated with increasing concentrations of the test compound or DMSO (0.1%), and incubated at 37° C., 5% CO2 for 1 h before addition of 10× stock OKT3 antibody at 10 ug/ml in media. Triplicate wells were used for each concentration. Cells were incubated at 37° C., 5% CO2 for 6 h before the cells were harvested. At time of harvest, cells were pelleted by centrifugation at 800 rpm for 5 min. Cells were harvested using the mRNA Catcher PLUS kit according to manufacturer's instructions. The eluted mRNA was then used in a one-step quantitative real-time PCR reaction, using components of the RNA UltraSense™ One-Step Kit (Life Technologies) together with Applied Biosystems TaqMan® primer-probes for hIL-17 and Cyclophilin. Real-time PCR plates were run on a ViiA™7 real time PCR machine (Applied Biosystems), data was analyzed, normalizing the Ct values for hIL-17 to an internal control, prior to determining the fold induction of each unknown sample, relative to the control.

hIL-6 mRNA in U937 cells = assay: Inhibition of hIL-6 mRNA transcription in LPS-stimulated U937 cells; type: cell-based; conditions: Homo sapiens, U-937, PMA-differentiated U937 cells, LPS 1 ug/mL, 3 h, read-out: IL-6 activity
Protocol: In this example, hIL-6 mRNA in tissue culture cells were quantitated to measure the transcriptional inhibition of hIL-6 when treated with a compound of the present disclosure.
Human leukemic monocyte lymphoma U937 cells (CRL-1593.2) were plated at a density of 3.2×10^4 cells per well in a 96-well plate in 100 μL RPMI-1640 containing 10% FBS and penicillin/streptomycin, and differentiated into macrophages for 3 days in 60 ng/mL PMA ([…]) at 37° C. in 5% CO2 prior to the addition of compound. The cells were pretreated for 1 h with increasing concentrations of test compound in 0.1% DMSO prior to stimulation with 1 ug/mL lipopolysaccharide from Escherichia coli. Triplicate wells were used for each concentration. The cells were incubated at 37° C., 5% CO2 for 3 h before the cells were harvested. At time of harvest, media was removed and cells were rinsed in 200 μL PBS. Cells were harvested using the mRNA Catcher PLUS kit according to manufacturer's instructions. The eluted mRNA was then used in a one-step quantitative real-time PCR reaction using components of the RNA UltraSense™ One-Step Kit (Life Technologies) together with Applied Biosystems TaqMan® primer-probes for hIL-6 and Cyclophilin. Real-time PCR plates were run on a ViiA™7 real time PCR machine (Applied Biosystems), data was analyzed, normalizing the Ct values for hIL-6 to an internal control, prior to determining the fold expression of each sample, relative to the control.

[3] = test system: c-myc in Human AML MV4-11 cells; assay: Inhibition of c-MYC expression (mRNA, real-time PCR) in MV4-11 cells; type: cell-based; conditions: 3 h, mRNA by real-time PCR
Protocol: MV4-11 cells (CRL-9591) were plated at a density of 2.5×10^4 cells per well in 96 well U-bottom plates and treated with increasing concentrations of test compound or DMSO (0.1%) in IMDM media containing 10% FBS and penicillin/streptomycin, and incubated for 3 h at 37° C. Triplicate wells were used for each concentration. Cells were pelleted by centrifugation and harvested using the mRNA Catcher PLUS kit according to manufacturer's instructions. The eluted mRNA isolated was then used in a one-step quantitative real-time PCR reaction, using components of the RNA UltraSense™ One-Step Kit (Life Technologies) together with Applied Biosystems TaqMan® primer-probes for cMYC and Cyclophilin. Real-time PCR plates were run on a ViiA™7 real time PCR machine (Applied Biosystems), data was analyzed, normalizing the Ct values for hMYC to an internal control, prior to determining the fold expression of each sample, relative to the control.

SMILES	IC50 [1] [µM]	IC50 (Human AML MV-4-11 cells) [µM]	IC50 [2] [µM]	IC50 (hIL-6 mRNA in U937 cells) [µM]	IC50 [3] [µM]
Cc1noc(C)c1-c1cc(-c2ccc(F)cc2C(F)(F)F)c2c(c1)[nH]c(=O)n2C [Example Compound 11, 5-(3,5-dimethylisoxazol-4-yl)-7-(4-fluoro-2-(trifluoromethyl)phenyl)-1-methyl-1H-benzo[d]imidazol-2(3H)-one]	0.3 to 3	0.3 to 3	≤ 0.3	0.3 to 3	0.3 to 3
Cc1nc(N)ccc1-c1cc(-c2c(C)noc2C)cc2[nH]c(=O)n(C)c12 [Example Compound 20, 7-(6-amino-2-methylpyridin-3-yl)-5-(3,5-dimethylisoxazol-4-yl)-1-methyl-1H-benzo[d]imidazol-2(3H)-one]	≤ 0.3	≤ 0.3	0.3 to 3	≤ 0.3	0.3 to 3
COc1nc(C)ccc1-c1cc(-c2c(C)noc2C)cc2[nH]c(=O)n(C)c12 [Example Compound 45, 5-(3,5-dimethylisoxazol-4-yl)-7-(2-methoxy-6-methylpyridin-3-yl)-1-methyl-1H-benzo[d]imidazol-2(3H)-one]	0.3 to 3	0.3 to 3	–	0.3 to 3	≤ 0.3
Cc1ccc(C#N)cc1-c1cc(-c2c(C)noc2C)cc2[nH]c(=O)n(C)c12 [Example Compound 16, 3-(6-(3,5-dimethylisoxazol-4-yl)-3-methyl-2-oxo-2,3-dihydro-1H-benzo[d]imidazol-4-yl)-4-methylbenzonitrile]	≤ 0.3	0.3 to 3	–	0.3 to 3	≤ 0.3
Cc1ccc(C(N)=O)cc1-c1cc(-c2c(C)noc2C)cc2[nH]c(=O)n(C)c12 [Example Compound 29, 3-(6-(3,5-dimethylisoxazol-4-yl)-3-methyl-2-oxo-2,3-dihydro-1H-benzo[d]imidazol-4-yl)-4-methylbenzamide]	≤ 0.3	0.3 to 3	–	0.3 to 3	≤ 0.3
Cc1noc(C)c1-c1cc(-c2cccnc2C(F)(F)F)c2c(c1)[nH]c(=O)n2C [Example Compound 8, 5-(3,5-dimethylisoxazol-4-yl)-1-methyl-7-(2-(trifluoromethyl)pyridin-3-yl)-1H-benzo[d]imidazol-2(3H)-one]	≤ 0.3	0.3 to 3	–	0.3 to 3	0.3 to 3
Cc1noc(C)c1-c1cc(-c2c(C)nn(C)c2C)c2[nH]c(=S)[nH]c2c1 [Example Compound 23, 6-(3,5-dimethylisoxazol-4-yl)-4-(1,3,5-trimethyl-1H-pyrazol-4-yl)-1H-benzo[d]imidazole-2(3H)-thione]	≤ 0.3	≤ 0.3	–	≤ 0.3	≤ 0.3
Cc1noc(C)c1-c1cc(-c2c(C)noc2C)c2oc(=O)[nH]c2c1 [Example Compound 3, 5,7-bis(3,5-dimethylisoxazol-4-yl)benzo[d]oxazol-2(3H)-one]	≤ 0.3	3 to 30	–	0.3 to 3	3 to 30
Cc1noc(C)c1-c1cc(-c2cccc3ccccc23)c2c(c1)[nH]c(=O)n2C [Example Compound 34, 5-(3,5-dimethylisoxazol-4-yl)-1-methyl-7-(naphthalen-1-yl)-1H-benzo[d]imidazol-2(3H)-one]	≤ 0.3	0.3 to 3	–	≤ 0.3	≤ 0.3
Cc1cnccc1-c1cc(-c2c(C)noc2C)cc2[nH]c(=O)n(C)c12 [Example Compound 38, 5-(3,5-dimethylisoxazol-4-yl)-1-methyl-7-(3-methylpyridin-4-yl)-1H-benzo[d]imidazol-2(3H)-one]	≤ 0.3	0.3 to 3	–	0.3 to 3	0.3 to 3
Cc1noc(C)c1Nc1cc(-c2c(C)noc2C)cc2[nH]c(=O)n(C)c12 [Example Compound 33, 5-(3,5-dimethylisoxazol-4-yl)-7-((3,5-dimethylisoxazol-4-yl)amino)-1-methyl-1H-benzo[d]imidazol-2(3H)-one]	≤ 0.3	0.3 to 3	–	0.3 to 3	≤ 0.3
Cc1nn(C)c(C)c1Nc1cc(-c2c(C)noc2C)cc2[nH]c(=O)n(C)c12 [Example Compound 26, 5-(3,5-dimethylisoxazol-4-yl)-1-methyl-7-((1,3,5-trimethyl-1H-pyrazol-4-yl)amino)-1H-benzo[d]imidazol-2(3H)-one]	≤ 0.3	0.3 to 3	–	0.3 to 3	≤ 0.3
Cc1ccc(Cl)cc1-c1cc(-c2c(C)noc2C)cc2[nH]c(=O)n(C)c12 [Example Compound 19, 7-(5-chloro-2-methylphenyl)-5-(3,5-dimethylisoxazol-4-yl)-1-methyl-1H-benzo[d]imidazol-2(3H)-one]	≤ 0.3	0.3 to 3	–	0.3 to 3	≤ 0.3
Cc1cncc(C)c1-c1cc(-c2c(C)noc2C)cc2[nH]c(=O)n(C)c12 [Example Compound 39, 5-(3,5-dimethylisoxazol-4-yl)-7-(3,5-dimethylpyridin-4-yl)-1-methyl-1H-benzo[d]imidazol-2(3H)-one]	≤ 0.3	0.3 to 3	–	≤ 0.3	≤ 0.3
